Reference: patent EP4786466A1, “QUINAZOLINE DERIVATIVE, SALT THEREOF, AND PHARMACEUTICAL COMPOSITION COMPRISING SAME AS ACTIVE INGREDIENT” (Korea Research Institute of Chemical Technology, priority 2023, dated 2025)
Where a name gives a salt, the structure may show the parent alone. Read-outs that look alike come from different tables or passages of the source.

Tests used:
[1] = system: MCF10A normal breast cell lines; assay: Cell viability analysis, WST-8 assay, MCF10A; details: Homo sapiens, MCF-10A, 72 h
Method: (§1) MCF7 breast cancer cell lines and MCF10A normal breast cancer cell lines were treated with serial dilutions of the compounds of the present invention ranging from 1 µM to 15.63 nM for 72 hours. Cell viability was measured by the WST-8 assay (Cyto XTM cell viability assay kit; LPS solution, Daejeon, Korea) according to the manufacturer's instructions.

[2] = molecular target: T1, Recombinant GST-TAG-MASTL (Homo sapiens, UniProt Q96GX5); assay: HTRF-based kinase assay (HTRF KinEASE assay kit); type: biochemical; details: for activity at 10 µM: read-out: MASTL activity (%) HTRF; for activity at 1 µM: compound 1 µM, read-out: MASTL activity (%) HTRF (1 µM)
T1 construct: GST; purchased Thermo Fisher Scientific
T1 sequence (Q96GX5 1-879): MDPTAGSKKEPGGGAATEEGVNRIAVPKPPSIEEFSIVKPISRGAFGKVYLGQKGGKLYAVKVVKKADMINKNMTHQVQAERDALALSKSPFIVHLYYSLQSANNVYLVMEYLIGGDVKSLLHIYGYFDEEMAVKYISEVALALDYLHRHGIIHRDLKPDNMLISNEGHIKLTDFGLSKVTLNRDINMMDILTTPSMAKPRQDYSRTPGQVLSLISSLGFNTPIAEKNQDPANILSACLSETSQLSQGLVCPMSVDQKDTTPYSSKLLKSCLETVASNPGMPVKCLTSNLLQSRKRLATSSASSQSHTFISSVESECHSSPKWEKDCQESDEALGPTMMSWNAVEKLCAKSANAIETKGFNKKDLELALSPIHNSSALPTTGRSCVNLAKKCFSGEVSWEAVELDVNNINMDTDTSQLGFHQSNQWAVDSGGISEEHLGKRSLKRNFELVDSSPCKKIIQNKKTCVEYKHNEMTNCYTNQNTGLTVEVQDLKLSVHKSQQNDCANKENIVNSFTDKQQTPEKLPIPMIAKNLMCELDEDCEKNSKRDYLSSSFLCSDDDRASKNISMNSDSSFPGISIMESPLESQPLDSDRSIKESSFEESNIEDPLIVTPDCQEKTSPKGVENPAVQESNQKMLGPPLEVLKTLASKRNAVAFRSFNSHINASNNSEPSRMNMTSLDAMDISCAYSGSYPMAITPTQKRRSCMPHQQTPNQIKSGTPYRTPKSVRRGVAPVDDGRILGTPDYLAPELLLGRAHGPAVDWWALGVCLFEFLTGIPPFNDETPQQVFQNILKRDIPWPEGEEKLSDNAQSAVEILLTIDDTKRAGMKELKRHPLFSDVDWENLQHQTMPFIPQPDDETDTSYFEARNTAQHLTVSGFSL
Excerpt: Recombinant GST-TAG-MASTL (Thermo Fisher Scientific, MA, USA) was used for HTRF-based kinase assays. The HTRF KinEASE assay kit (CisBio, MA, USA) was used according to the manufacturer's instructions.

[3] = system: MCF7 breast cancer cell lines; assay: Cell viability analysis, WST-8 assay, MCF7; details: Homo sapiens, MCF7, 72 h; for viability at 1.25 µM: read-out: Cell viability (%) WST-8, MCF7, footnote a: concentration 1.25 µM, 72 hours; for viability at 1 µM: read-out: Cell viability (%) WST-8, MCF7 (1 µM), compound 1 µM, 72 hours
Method: as §1

[4] = in vitro; details: human
Method: as §1

[5] = system: pENSA; assay: pENSA level by immunofluorescence (described method: in vitro kinase analysis with GST-tag-MASTL and His-tag-ENSA); type: cell-based; details: for pENSA (%) Immunofluor ecense (1 µM): compound 1 µM
Outline: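 In vitro kinase reaction using recombinant GST-tagged MASTL with His-tagged ENSA as substrate; phosphorylated ENSA (pENSA) serves as read-out of MASTL activity. Cell lines named: MCF7 breast cancer and MCF10A.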

[6] = read-out: IC50 Cell viability (MCF10A)
[7] = HTRF, read-out: IC50(nM) MASTL activity
[8] = footnote b: concentration 10 µM
[9] = read-out: IC50 Cell viability (MCF7)
[10] = read-out: IC50(nM) Cell viability (MCF10A)
[11] = read-out: IC50(nM) Cell viability (MCF7)

Structure (SMILES): OCCNc1nc(Nc2cc(C3CC3)[nH]n2)c2ccccc2n1 [compound 4cf, 2-((4-((5-cyclopropyl-1G-pyrazol-3-yl)amino)quinazolin-2-yl)amino)ethan-1-ol hydrochloride]
- IC50 [1, 6]: 1200 nM
- IC50 [2, 7]: 893 nM
- activity at 10 µM [2, 8]: 23.7%
- viability at 1.25 µM [3]: 87%
- IC50 [3, 9]: 1800 nM
- viability at 1.25 µM ([4]; mcf10a cells): 56.4%
- pENSA (%) Immunofluor ecense (1 µM) [5]: 17.4%
- IC50 ([5]; read-out: IC50(nM) pENSA): 423 nM

Structure (SMILES): c1ccc2c(Nc3cc(C4CC4)[nH]n3)nc(Nc3cccc4[nH]ccc34)nc2c1 [compound 4da, N^4-(5-cyclopropyl-1H-pyrazol-3-yl)-N^2-(1H-indol-4-yl)quinazoline-2,4-diamine]
- IC50 [1, 10]: 683 nM
- IC50 [2, 7]: 309 nM
- activity at 1 µM [2]: 58.5%
- viability at 1 µM [3]: 30.1%
- IC50 [3, 11]: 702 nM
- viability at 1 µM [4]: 18.9%
- IC50 ([5]; unit µM, read-out: IC50 pENSA): 1800 nM

Structure (SMILES): c1ccc2c(Nc3cc(C4CC4)[nH]n3)nc(Nc3ccc4[nH]ccc4c3)nc2c1 [compound 4db, N^4-(5-cyclopropyl-1H-pyrazol-3-yl)-N^2-(1H-indol-5-yl)quinazoline-2,4-diamine]
- IC50 [1, 10]: 300 nM
- activity at 1 µM [2]: 28.9%
- viability at 1 µM [3]: 3.2%
- IC50 [3, 11]: 221 nM
- viability at 1 µM [4]: 8.9%
- IC50 ([5]; unit µM, read-out: IC50 pENSA): 2100 nM

Structure (SMILES): c1ccc2c(Nc3cc(C4CC4)[nH]n3)nc(Nc3ccc4cc[nH]c4c3)nc2c1 [compound 4dc, N^4-(5-cyclopropyl-1H-pyrazol-3-yl)-N^2-(1H-indol-6-yl)quinazoline-2,4-diamine]
- IC50 [1, 6]: 1300 nM
- IC50 [2, 7]: 480 nM
- activity at 1 µM [2]: 22.1%
- viability at 1 µM [3]: 6.4%
- IC50 [3, 11]: 467 nM
- viability at 1 µM [4]: 54%
- IC50 ([5]; unit µM, read-out: IC50 pENSA): 2500 nM

Structure (SMILES): c1ccc2c(Nc3cc(C4CC4)[nH]n3)nc(Nc3ccc4[nH]ncc4c3)nc2c1 [compound 4dd, N^4-(5-cyclopropyl-1H-pyrazol-3-yl)-N^2-(1H-indazol-5-yl)quinazoline-2,4-diamine]
- IC50 [1, 10]: 107 nM
- IC50 [2, 7]: 157 nM
- activity at 1 µM [2]: 17.9%
- viability at 1 µM [3]: 12.9%
- IC50 [3, 11]: 317 nM
- viability at 1 µM [4]: 3.7%
- IC50 ([5]; unit µM, read-out: IC50 pENSA): 1500 nM

Structure (SMILES): CNS(=O)(=O)c1ccc(Nc2nc(Nc3cc(C4CC4)[nH]n3)c3ccccc3n2)cc1 [compound 4h, 4-((4-((5-cyclopropyl-1G-pyrazol-3-yl)amino)quinazolin-2-yl)amino)-M-methylbenzenesulfonamide]
- IC50 [1, 10]: 57.2 nM
- IC50 [2, 7]: 843 nM
- activity at 10 µM [2, 8]: 17.6%
- viability at 1.25 µM [3]: 41.8%
- IC50 [3, 11]: 758 nM
- viability at 1.25 µM ([4]; mcf10a cells): 4.7%
- pENSA (%) Immunofluor ecense (1 µM) [5]: 17.1%
- IC50 ([5]; read-out: IC50(nM) pENSA): 408 nM

Structure (SMILES): O=S(=O)(NCCO)c1ccc(Nc2nc(Nc3cc(C4CC4)[nH]n3)c3ccccc3n2)cc1 [compound 4i, 4-((4-((5-cyclopropyl-1G-pyrazol-3-yl)amino)quinazolin-2-yl)amino)-M-(2-hydroxyethyl)benzenesulfonamide]
- IC50 [1, 10]: 132 nM
- IC50 [2]: 1200 nM
- activity at 10 µM [2]: 8.7%
- viability at 1.25 µM [3]: 45.9%
- IC50 [3, 9]: 1100 nM
- viability at 1.25 µM ([4]; mcf10a cells): 5.8%
- pENSA (%) Immunofluor ecense (1 µM) [5]: 16%
- IC50 ([5]; read-out: IC50(nM) pENSA): 378 nM

Structure (SMILES): c1ccc2c(Nc3cc(C4CC4)[nH]n3)nc(Nc3cc(C4CC4)[nH]n3)nc2c1 [compound 4n, M^2,M^4-bis(5-cyclopropyl-1G-pyrazol-3-yl)quinazoline-2,4-diamine]
- IC50 [1, 10]: 116 nM
- activity at 1 µM [2]: 106%
- viability at 1 µM [3]: 21.5%
- IC50 [3, 11]: 287 nM
- viability at 1 µM ([4]; mcf10a cells): 3.2%
- pENSA (%) Immunofluor ecense (1 µM) [5]: 92.8%

Structure (SMILES): O=C(O)Cc1ccc(Nc2nc(Nc3cc(C4CC4)[nH]n3)c3ccccc3n2)cc1 [compound 4s, 2-(4-((4-((5-cyclopropyl-1G-pyrazol-3-yl)amino)quinazolin-2-yl)amino)phenyl)acetic acid]
- IC50 [1, 10]: 113 nM
- activity at 1 µM [2]: 56.2%
- viability at 1 µM [3]: 102%
- IC50 [3, 11]: 102 nM
- viability at 1 µM ([4]; mcf10a cells): 113%
- pENSA (%) Immunofluor ecense (1 µM) [5]: 89.1%
- IC50 ([5]; read-out: IC50(nM) pENSA): 89.1 nM
